Measured values reported in patent US12110293B2, “Substituted triazolo quinoxaline derivatives” (GRÜNENTHAL GMBH, priority 2018, dated 2024).

Target: T1, glucocorticoid receptor (Homo sapiens, UniProt P04150)
T1 construct: expressed in transfected cells
T1 sequence (P04150 524-758 limits assumed): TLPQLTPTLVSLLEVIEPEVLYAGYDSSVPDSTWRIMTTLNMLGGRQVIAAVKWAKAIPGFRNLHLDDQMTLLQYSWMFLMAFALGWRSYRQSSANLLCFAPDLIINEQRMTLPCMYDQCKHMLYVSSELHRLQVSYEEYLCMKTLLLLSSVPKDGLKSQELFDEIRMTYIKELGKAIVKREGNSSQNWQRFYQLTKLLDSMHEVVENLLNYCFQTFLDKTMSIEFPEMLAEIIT
Test: Agonistic mode of action on the glucocorticoid receptor (CHO-Gal4/GR luciferase reporter cell line)
Type: cell-based
Conditions: range class observed in the agonistic assay or the antagonistic assay (CHO-Gal4/GR reporter cells); table does not say which mode applies per example
Outline: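 CHO cells stably carrying GAL4 DBD–GR ligand-binding-domain fusion and GAL4-UAS firefly luciferase reporter, 5000 cells/well grown 24 h, then compounds added in Opti-MEM at 8 half-log concentrations from 10 μM to 0.003 μM (0.5% DMSO), quadruplicates. Agonist-induced luminescence read on FLIPR Tetra; EC50 calculated.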

IC50 or EC50 (agonist or antagonist mode not specified) | Structure (SMILES)
0.1 to 1 µM | Cc1c(-c2cc(C#N)cc3[nH]ccc23)c(F)cc2c1-n1c(C)nnc1C(C)(C)N2 [Example 494, 4-(7-Fluoro-1,4,4,9-tetramethyl-5H-[1,2,4]triazolo[4,3-a]quinoxalin-8-yl)-1H-indole-6-carbonitrile]
< 0.1 µM | COCCn1ccc2c(-c3c(F)cc4c(c3OC)-n3c(C)nnc3C(C)(C)N4)cc(F)cc21 [Example 351, 7-Fluoro-8-[6-fluoro-1-(2-methoxy-ethyl)-1H-indol-4-yl]-9-methoxy-1,4,4-trimethyl-5H-[1,2,4]triazolo [4,3-a]quinoxaline]
< 0.1 µM | Cc1nnc2n1-c1c(cc(F)c(-c3cc(F)cc4c3ccn4C)c1C(F)F)NC2(C)C [Example 521, 9-(Difluoro-methyl)-7-fluoro-8-(6-fluoro-1-methyl-1H-indol-4-yl)-1,4,4-trimethyl-5H-[1,2,4]triazolo [4,3-a]quinoxaline]
< 0.1 µM | Cc1c[nH]c2c(-c3c(F)cc4c(c3F)-n3c(Cc5ccccn5)nnc3C(C)(C)N4)cc(F)cc12 [Example 74, 7,9-Difluoro-8-(5-fluoro-3-methyl-1H-indol-7-yl)-4,4-dimethyl-1-(pyridin-2-yl-methyl)-5H-[1,2,4]triazolo[4,3-a]quinoxaline]
1 to 15 µM | COCCn1ccc2c(-c3c(OC)cc4c(c3C)-n3c(C)nnc3C(C)(C)N4)cccc21 [Example 344, 7-Methoxy-8-[1-(2-methoxy-ethyl)-1H-indol-4-yl]-1,4,4,9-tetramethyl-5H-[1,2,4]triazolo[4,3-a] quinoxaline]
0.1 to 1 µM | Cc1c[nH]c2c(-c3ccc4c(c3C(F)(F)F)-n3c(C)nnc3C(C)(C)N4)cccc12 [Example 503, 1,4,4-Trimethyl-8-(3-methyl-1H-indol-7-yl)-9-(trifluoromethyl)-5H-[1,2,4]triazolo[4,3-a]quinoxaline]
0.1 to 1 µM | COc1c(-c2cc(C)cc3c2ccn3S(C)(=O)=O)c(F)cc2c1-n1c(C)nnc1C(C)(C)N2 [Example 477, 7-Fluoro-9-methoxy-1,4,4-trimethyl-8-(6-methyl-1-methylsulfonyl-1H-indol-4-yl)-5H-[1,2,4]triazolo[4,3-a]quinoxaline]
0.1 to 1 µM | Cc1nnc2n1-c1c(cc(F)c(-c3cccc4c3cnn4C(=O)OC(C)(C)C)c1F)NC2(C)C [Example 238, 4-(7,9-Difluoro-1,4,4-trimethyl-5H-[1,2,4]triazolo[4,3-a]quinoxalin-8-yl)-1H-indazole-1-carboxylic acid tert-butyl ester]
0.1 to 1 µM | COc1c(-c2cccc3[nH]ncc23)c(F)cc2c1-n1c(C)nnc1C(C)(C)N2 [Example 490, 7-Fluoro-8-(1H-indazol-4-yl)-9-methoxy-1,4,4-trimethyl-5H-[1,2,4]triazolo[4,3-a]quinoxaline]
< 0.1 µM | CC#CCc1nnc2n1-c1c(cc(F)c(-c3cccc4c(C)c[nH]c34)c1F)NC2(C)C [Example 70, 1-(but-2-yn-1-yl)-7,9-difluoro-4,4-dimethyl-8-(3-methyl-1H-indol-7-yl)-4,5-dihydro-[1,2,4]triazolo[4,3-a]quinoxaline]
< 0.1 µM | Cc1nnc2n1-c1c(cc(F)c(-c3cc(F)cc4c3ccn4S(C)(=O)=O)c1F)NC2(C)C [Example 3, 7,9-difluoro-8-(6-fluoro-1-(methylsulfonyl)-1H-indol-4-yl)-1,4,4-trimethyl-4,5-dihydro-[1,2,4]triazolo[4,3-a]quinoxaline]
< 0.1 µM | Cc1nnc2n1-c1c(cc(F)c(-c3cccc4c3ccn4S(C)(=O)=O)c1C1CC1)NC2(C)C [Example 462, 9-Cyclopropyl-7-fluoro-1,4,4-trimethyl-8-(1-methylsulfonyl-1H-indol-4-yl)-5H-[1,2,4]triazolo [4,3-a]quinoxaline]
0.1 to 1 µM | Cc1nnc2n1-c1c(cc(F)c(-c3cccc4[nH]ncc34)c1F)NC2(C)C [Example 232, 7,9-Difluoro-8-(1H-indazol-4-yl)-1,4,4-trimethyl-5H-[1,2,4]triazolo[4,3-a]quinoxaline]
0.1 to 1 µM | CCS(=O)(=O)n1ccc2c(-c3c(F)cc4c(c3F)-n3c(C)nnc3C(C)(C)N4)cc(F)cc21 [Example 18, 8-(1-(ethylsulfonyl)-6-fluoro-1H-indol-4-yl)-7,9-difluoro-1,4,4-trimethyl-4,5-dihydro-[1,2,4]triazolo[4,3-a]quinoxaline]
0.1 to 1 µM | Cc1nnc2n1-c1c(cc(F)c(-c3cc(F)cc4cc[nH]c34)c1C(F)(F)F)NC2(C)C [Example 516, 7-Fluoro-8-(5-fluoro-1H-indol-7-yl)-1,4,4-trimethyl-9-(trifluoro-methyl)-5H-[1,2,4]triazolo[4,3-a] quinoxaline]
< 0.1 µM | Cc1c(-c2cc(F)cc3c2ccn3C)c(F)cc2c1-n1c(C)nnc1C(C)(C)N2 [Example 518, 7-Fluoro-8-(6-fluoro-1-methyl-1H-indol-4-yl)-1,4,4,9-tetramethyl-5H-[1,2,4]triazolo[4,3-a]quinoxaline]
0.1 to 1 µM | CC#Cc1c[nH]c2c(-c3c(F)cc4c(c3F)-n3c(CC)nnc3C(C)(C)N4)cccc12 [Example 13, 1-ethyl-7,9-difluoro-4,4-dimethyl-8-(3-(prop-1-yn-1-yl)-1H-indol-7-yl)-4,5-dihydro-[1,2,4]triazolo[4,3-a]quinoxaline]
1 to 15 µM | COc1c(-c2cccc3c(C)n[nH]c23)c(F)cc2c1-n1c(C)nnc1C(C)(C)N2 [Example 381, 7-Fluoro-9-methoxy-1,4,4-trimethyl-8-(3-methyl-1H-indazol-7-yl)-5H-[1,2,4]triazolo[4,3-a]quinoxaline]
0.1 to 1 µM | Cc1nnc2n1-c1c(cc(F)c(-c3cc(F)cc4c3ccn4CC(F)(F)F)c1F)NC2(C)C [Example 21, 7,9-difluoro-8-(6-fluoro-1-(2,2,2-trifluoroethyl)-1H-indol-4-yl)-1,4,4-trimethyl-4,5-dihydro-[1,2,4]triazolo[4,3-a]quinoxaline]
< 0.1 µM | Cc1cc2c(c(C)c1-c1cccc3c(C)c[nH]c13)-n1c(C)nnc1C(C)(C)N2 [Example 356, 1,4,4,7,9-Pentamethyl-8-(3-methyl-1H-indol-7-yl)-5H-[1,2,4]triazolo[4,3-a]quinoxaline]
< 0.1 µM | Cc1nnc2n1-c1c(cc(F)c(-c3cc(F)cc4c3ccn4C)c1C(F)(F)F)NC2(C)C [Example 532, 7-Fluoro-8-(6-fluoro-1-methyl-1H-indol-4-yl)-1,4,4-trimethyl-9-(trifluoromethyl)-5H-[1,2,4] triazolo[4,3-a]quinoxaline]
0.1 to 1 µM | Cc1nnc2n1-c1c(ccc(-c3cccc4c3ccn4S(C)(=O)=O)c1C(F)F)NC2(C)C [Example 528, 9-(Difluoro-methyl)-1,4,4-trimethyl-8-(1-methylsulfonyl-1H-indol-4-yl)-5H-[1,2,4]triazolo [4,3-a]quinoxaline]
0.1 to 1 µM | Cc1nnc2n1-c1c(cc(F)c(-c3cccc4cc[nH]c34)c1C(F)(F)F)NC2(C)C [Example 86, 7-fluoro-8-(1H-indol-7-yl)-1,4,4-trimethyl-9-(trifluoromethyl)-4,5-dihydro-[1,2,4]triazolo[4,3-a]quinoxaline]
1 to 15 µM | CCc1nnc2n1-c1c(cc(F)c(-c3cc(F)cc4c3cnn4S(C)(=O)=O)c1C)NC2(C)C [Example 348, 1-Ethyl-7-fluoro-8-(6-fluoro-1-methylsulfonyl-1H-indazol-4-yl)-4,4,9-trimethyl-5H-[1,2,4]triazolo [4,3-a]quinoxaline]
1 to 15 µM | COCCn1ccc2c(-c3c(Cl)cc4c(c3F)-n3c(C)nnc3C(C)(C)N4)cccc21 [Example 280, 7-Chloro-9-fluoro-8-[1-(2-methoxy-ethyl)-1H-indol-4-yl]-1,4,4-trimethyl-5H-[1,2,4]triazolo[4,3-a]quinoxaline]
0.1 to 1 µM | Cc1n[nH]c2c(-c3c(F)cc4c(c3F)-n3c(C)nnc3C(C)(C)N4)cccc12 [Example 354, 7,9-Difluoro-1,4,4-trimethyl-8-(3-methyl-1H-indazol-7-yl)-5H-[1,2,4]triazolo[4,3-a]quinoxaline]
1 to 15 µM | CCc1nnc2n1-c1c(cc(F)c(-c3cccc4c3ccn4CCOC)c1C)NC2(C)C [Example 299, 1-Ethyl-7-fluoro-8-[1-(2-methoxy-ethyl)-1H-indol-4-yl]-4,4,9-trimethyl-5H-[1,2,4]triazolo[4,3-a]quinoxaline]
0.1 to 1 µM | COCCn1ncc2c(-c3c(OC(F)(F)F)cc4c(c3C)-n3c(C)nnc3C(C)(C)N4)cc(F)cc21 [Example 480, 8-[6-Fluoro-1-(2-methoxy-ethyl)-1H-indazol-4-yl]-1,4,4,9-tetramethyl-7-(trifluoromethyloxy)-5H-[1,2,4]triazolo[4,3-a]quinoxaline]
0.1 to 1 µM | COc1cc2c(c(C(F)(F)F)c1-c1cc(F)cc3c1ccn3C)-n1c(C)nnc1C(C)(C)N2 [Example 517, 8-(6-Fluoro-1-methyl-1H-indol-4-yl)-7-methoxy-1,4,4-trimethyl-9-(trifluoromethyl)-5H-[1,2,4]triazolo [4,3-a]quinoxaline]
